From PMC9090415, “Discovery of small molecule inhibitors of Plasmodium falciparum apicoplast DNA polymerase” (Journal of Enzyme Inhibition and Medicinal Chemistry, 2022)

Molecular target: P. falciparum apicoplast DNA polymerase (Pf-apPOL) (Plasmodium falciparum, UniProt Q8ILY1)
Assay: Fluorescence-based high-throughput DNA polymerase assay (molecular beacon), primary screen and dose-response;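 as to % inhibition ApPOL 90': test concentration in µM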;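 as to % inhibition Apol 40': compound concentration given in µM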;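 as to % inhibition apPOL 180': test concentration in µM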
Type: biochemical
Settings: for DNA Pol: 90 min, 10 µM
How it was run: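 Single-point screening used 10 µM compound with 20 nM polymerase, 20 nM hairpin substrate and 6 µM dNTPs for 90 min at 25 °C. Confirmatory titrations (2.5–80 µM) followed fluorescence at three times, and IC50 was derived from a fit including a cooperativity term n.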

Chain of P. falciparum apicoplast DNA polymerase (Pf-apPOL) (Q8ILY1 entry or part of it): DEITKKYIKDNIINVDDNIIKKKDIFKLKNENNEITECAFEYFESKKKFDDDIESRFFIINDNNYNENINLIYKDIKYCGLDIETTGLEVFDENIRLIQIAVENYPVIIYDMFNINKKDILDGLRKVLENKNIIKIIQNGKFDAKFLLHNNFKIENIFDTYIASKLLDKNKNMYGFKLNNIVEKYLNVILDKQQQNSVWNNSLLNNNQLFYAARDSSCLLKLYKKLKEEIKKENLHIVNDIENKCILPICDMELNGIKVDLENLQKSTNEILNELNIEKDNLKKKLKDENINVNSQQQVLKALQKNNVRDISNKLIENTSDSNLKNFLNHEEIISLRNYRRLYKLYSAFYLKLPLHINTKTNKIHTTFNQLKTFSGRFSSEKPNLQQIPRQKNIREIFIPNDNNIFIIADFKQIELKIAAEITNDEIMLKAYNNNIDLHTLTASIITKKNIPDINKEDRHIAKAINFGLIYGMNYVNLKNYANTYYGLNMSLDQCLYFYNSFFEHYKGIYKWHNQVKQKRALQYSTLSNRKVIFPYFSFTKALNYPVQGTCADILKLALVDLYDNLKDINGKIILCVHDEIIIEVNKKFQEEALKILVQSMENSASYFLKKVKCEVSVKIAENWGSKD

Cl.NC(CO)C(=O)NNCc1ccc(O)c(O)c1O (centres unmarked) [KU0260493]
DNA Pol ('DNA Pol' of the 186 hits list (primary screen value)): 84 | DNA Pol (DNA Pol (primary screen value)): 84 | % inhibition Apo pol 10' (DRC-1, concentration 2.5): 2.4672% | % inhibition Apo pol 10' (DRC-1, concentration 5): 2.015% | % inhibition Apo pol 10' (DRC-1, concentration 10): 15.4444% | % inhibition Apo pol 10' (DRC-1, concentration 20): 26.1922% | % inhibition Apo pol 10' (DRC-1, concentration 40): 36.4325% | % inhibition Apo pol 10' (DRC-1, concentration 80): 40.9646% | % inhibition Apol 90' (DRC-1, concentration 2.5): -5.483% | % inhibition Apol 90' (DRC-1, concentration 5): -0.705% | % inhibition Apol 90' (DRC-1, concentration 10): 31.8192% | % inhibition Apol 90' (DRC-1, concentration 20): 46.4998% | % inhibition Apol 90' (DRC-1, concentration 40): 57.8018% | % inhibition Apol 90' (DRC-1, concentration 80): 63.3107% | % inhibition apPOL 180' (DRC-1, concentration 2.5): -3.278% | % inhibition apPOL 180' (DRC-1, concentration 5): 12.5243% | % inhibition apPOL 180' (DRC-1, concentration 10): 43.7705% | % inhibition apPOL 180' (DRC-1, concentration 20): 57.9843% | % inhibition apPOL 180' (DRC-1, concentration 40): 66.1218% | % inhibition apPOL 180' (DRC-1, concentration 80): 68.6937% | % inhibition Apo pol 5' (DRC-2, concentration 2.5): -5.63% | % inhibition Apo pol 5' (DRC-2, concentration 5): 3.49% | % inhibition Apo pol 5' (DRC-2, concentration 10): 23% | % inhibition Apo pol 5' (DRC-2, concentration 20): 36% | % inhibition Apo pol 5' (DRC-2, concentration 40): 47% | % inhibition Apo pol 5' (DRC-2, concentration 80): 54% | % inhibition Apol 40' (DRC-2, concentration 2.5): -1.63% | % inhibition Apol 40' (DRC-2, concentration 5): 15% | % inhibition Apol 40' (DRC-2, concentration 10): 38% | % inhibition Apol 40' (DRC-2, concentration 20): 53% | % inhibition Apol 40' (DRC-2, concentration 40): 62% | % inhibition Apol 40' (DRC-2, concentration 80): 65% | % inhibition ApPOL 90' (DRC-2, concentration 2.5): 1.48% | % inhibition ApPOL 90' (DRC-2, concentration 5): 22% | % inhibition ApPOL 90' (DRC-2, concentration 10): 45% | % inhibition ApPOL 90' (DRC-2, concentration 20): 60% | % inhibition ApPOL 90' (DRC-2, concentration 40): 67% | % inhibition ApPOL 90' (DRC-2, concentration 80): 68% | % inhibition apPOL 180' (DRC-2, concentration 2.5): 11% | % inhibition apPOL 180' (DRC-2, concentration 5): 32% | % inhibition apPOL 180' (DRC-2, concentration 10): 53% | % inhibition apPOL 180' (DRC-2, concentration 20): 67% | % inhibition apPOL 180' (DRC-2, concentration 40): 71% | % inhibition apPOL 180' (DRC-2, concentration 80): 72%
